ChEMBL document CHEMBL1130104 (J Med Chem, 1997)

Columns and labels:
[1] = system: HeLa; assay: Compound was tested for Anti-HIV activity by plaque reduction assay with A018-post virus in HT4-6C human CD4+ […]; assay type: functional, cell-based
[2] = system: HeLa; assay: Compound was tested for Anti-HIV activity by plaque reduction assay with E89K virus in HT4-6C human CD4+ […]; assay type: functional, cell-based
[3] = system: HeLa; assay: Compound was tested for Anti-HIV activity by plaque reduction assay with wild type HIV-1LAI virus in HT4-6C human CD4+ […]; assay type: functional, cell-based
[4] = system: HeLa; assay: compound was tested for 50% toxic concentration by visual grading scale of cells after 3 days of drug treatment in HT4-6C cells.; assay type: functional; conditions: Homo sapiens, 72 h, read-out: TC50 (the source's name)
[5] = selectivity index expressed as TC50/EC50; EC50 values are calculated from […] cells infected with HIV-1LAI; assay type: functional
[6] = selectivity index expressed as TC50/EC50; EC50 values are calculated from HT4-6C cells infected with HIV-1LAI virus.
[7] = compound was tested for 50% toxic concentration by flow cytometry after propidium iodide staining after 3 days of drug treatment in CEM lymphoblast cells.; conditions: human, read-out: TC50
[8] = selectivity index = TC50/EC50. The EC50 values are calculated from CEM lymphoblast cells infected with HIV-1LAI virus.; assay type: functional, CCRF-CEM

SMILES	EC50 [1]	EC50 [2]	EC50 [3]	CC50 [4]	Selectivity index [5]	Selectivity index [6]	CC50 at 72 h [7]	Selectivity index [8]
Cc1cn([C@H]2C[C@H](N=[N+]=[N-])[C@@H](CO)O2)c(=O)[nH]c1=O [ZIDOVUDINE]	2.9 µM	0.009 µM	0.013 µM					
O=C(O)P(=O)(O)O [FOSCARNET]	65 µM	> 1000 µM	133 µM	1000 µM	>7.5	6	800 µM	
CCCCCCCCCCCCCCCCCCOC(=O)P(=O)(O)OC[C@H]1O[C@@H](n2cc(C)c(=O)[nH]c2=O)C[C@@H]1N=[N+]=[N-].N	0.3 µM	0.13 µM	0.1 µM	10 µM	100	280	28 µM	
CCCCCCCCCCCCCCCCCCCCOC(=O)P(=O)(O)OC[C@H]1O[C@@H](n2cc(C)c(=O)[nH]c2=O)C[C@@H]1N=[N+]=[N-].N	0.53 µM	0.009 µM	0.14 µM	32 µM	228		36 µM	257
CCCCCCCCCCCCCCCCCCCCCCOC(=O)P(=O)(O)OC[C@H]1O[C@@H](n2cc(C)c(=O)[nH]c2=O)C[C@@H]1N=[N+]=[N-].N	0.77 µM	0.17 µM	0.32 µM	320 µM	1000		93 µM	291
